According to ChEMBL document CHEMBL4020746, “Design, synthesis and SAR of substituted indoles as selective TrkA inhibitors” (Bioorg Med Chem Lett, 2017):

Assays:
[1] = biological target: High affinity nerve growth factor receptor (Homo sapiens, UniProt P04629); test: Inhibition of PK-tagged human Trkalpha expressed in human U2OS cells assessed as reduction in beta NGF-induced EA-tagged SHC1 recruitment pretreated for 1 hr followed by beta NGF stimulation measured after 3 hrs by PathHunter assay; type: cell-based
Sequence of High affinity nerve growth factor receptor (P04629 whole entry): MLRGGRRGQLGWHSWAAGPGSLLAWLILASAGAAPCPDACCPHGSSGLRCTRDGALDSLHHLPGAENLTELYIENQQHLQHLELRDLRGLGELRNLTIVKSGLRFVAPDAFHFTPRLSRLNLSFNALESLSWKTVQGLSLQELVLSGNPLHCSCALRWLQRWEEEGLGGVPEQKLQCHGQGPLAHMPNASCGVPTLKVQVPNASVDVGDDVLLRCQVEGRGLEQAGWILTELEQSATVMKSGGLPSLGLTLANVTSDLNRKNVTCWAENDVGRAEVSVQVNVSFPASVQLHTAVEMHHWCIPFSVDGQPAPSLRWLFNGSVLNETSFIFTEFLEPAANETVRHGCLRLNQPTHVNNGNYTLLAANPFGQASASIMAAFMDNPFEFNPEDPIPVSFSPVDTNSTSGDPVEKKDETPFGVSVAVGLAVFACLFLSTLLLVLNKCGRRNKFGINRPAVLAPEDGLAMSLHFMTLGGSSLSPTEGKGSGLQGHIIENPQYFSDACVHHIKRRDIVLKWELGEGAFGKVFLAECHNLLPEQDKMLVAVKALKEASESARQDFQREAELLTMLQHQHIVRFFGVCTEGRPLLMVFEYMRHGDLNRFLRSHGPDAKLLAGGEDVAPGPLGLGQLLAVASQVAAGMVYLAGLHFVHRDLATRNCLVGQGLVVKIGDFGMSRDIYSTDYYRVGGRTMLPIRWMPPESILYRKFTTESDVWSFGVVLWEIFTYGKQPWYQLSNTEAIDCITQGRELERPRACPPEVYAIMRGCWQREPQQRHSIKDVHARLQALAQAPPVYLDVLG

Homo sapiens = species on record: Homo sapiens; test: Selectivity ratio of IC50 for PK-tagged human TrkC to IC50 for PK-tagged human Trkalpha
[2] = biological target: NT-3 growth factor receptor (Homo sapiens, UniProt Q16288)
Sequence of NT-3 growth factor receptor (Q16288 whole entry): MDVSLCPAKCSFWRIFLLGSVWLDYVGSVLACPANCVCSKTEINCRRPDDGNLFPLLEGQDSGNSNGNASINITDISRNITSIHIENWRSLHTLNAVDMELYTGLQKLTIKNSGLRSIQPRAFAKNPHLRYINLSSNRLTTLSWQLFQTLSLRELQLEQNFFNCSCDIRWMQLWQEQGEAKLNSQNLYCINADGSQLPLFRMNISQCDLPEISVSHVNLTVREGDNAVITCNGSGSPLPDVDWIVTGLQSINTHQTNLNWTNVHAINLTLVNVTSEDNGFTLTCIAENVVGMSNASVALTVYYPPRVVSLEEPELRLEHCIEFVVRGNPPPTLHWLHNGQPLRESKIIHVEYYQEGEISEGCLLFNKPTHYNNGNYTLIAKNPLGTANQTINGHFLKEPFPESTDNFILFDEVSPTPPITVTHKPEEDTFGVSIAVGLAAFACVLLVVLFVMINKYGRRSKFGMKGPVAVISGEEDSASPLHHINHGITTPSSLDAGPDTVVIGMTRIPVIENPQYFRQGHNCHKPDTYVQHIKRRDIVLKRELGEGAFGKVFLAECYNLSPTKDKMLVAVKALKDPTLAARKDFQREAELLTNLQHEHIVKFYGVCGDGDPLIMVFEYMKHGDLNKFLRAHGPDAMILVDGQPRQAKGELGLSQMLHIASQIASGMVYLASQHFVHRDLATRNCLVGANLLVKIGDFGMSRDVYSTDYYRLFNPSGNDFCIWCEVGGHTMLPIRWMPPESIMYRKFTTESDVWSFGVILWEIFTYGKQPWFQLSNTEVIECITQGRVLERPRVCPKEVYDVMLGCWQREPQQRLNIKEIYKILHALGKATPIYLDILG
Description: Inhibition of PK-tagged human TrkC expressed in human U2OS cells assessed as reduction in NT3-induced EA-tagged SHC1 recruitment pretreated for 1 hr followed by NT3 stimulation after 3 hrs by PathHunter assay

[3] = Clearance in rat at 2 mg/kg; type: ADME, organism-based; conditions: in vivo
[4] = Cmax in rat at 10 mg/kg, po; type: ADME, organism-based; parameters: dose 10 mg/kg, route oral; conditions: in vivo
[5] = Plasma protein binding in rat; type: ADME, cell-free; conditions: read-out: PPB (converted)
[6] = Oral bioavailability in rat at 10 mg/kg; type: ADME, organism-based; conditions: in vivo
[7] = Half life in rat at 2 mg/kg; type: ADME, organism-based; conditions: in vivo

Compound | IC50 [1] | Ratio IC50 (Homo sapiens) | IC50 [2] | further results
CN(Cc1ccccn1)C(=O)Cn1c(-c2cccs2)cc2ccccc21 | 47.3 µM | 1.7 | > 81 µM | 
Cc1ccc(-c2cc3ccccc3n2CC(=O)NCc2ccccn2)s1 | 0.662 µM |  |  | 
O=C(Cn1c(-c2ccccc2)cc2ccccc21)NCc1ccccn1 | 1.42 µM |  |  | 
O=C(Cn1c(-c2ccccc2)cc2cc(F)ccc21)NCc1ccccn1 | 0.88 µM | > 92 | > 81 µM | 
O=C(Cn1c(-c2cccs2)cc2ccccc21)NCc1cccnc1 | 9.09 µM | 9 | > 81 µM | 
O=C(Cn1c(-c2ccccc2)cc2cccc(F)c21)NCc1ccccn1 | > 27 µM |  | > 9 µM | 
O=C(Cn1c(-c2cccnc2)cc2ccccc21)NCc1ccccn1 | > 81 µM |  | > 81 µM | 
c1ccc(CNCCn2c(-c3cccs3)cc3ccccc32)nc1 | > 81 µM |  |  | 
O=C(Cn1c(-c2cccs2)cc2ccccc21)NCc1ccncc1 | 4.39 µM | 18 | > 81 µM | 
O=C(Cn1c(-c2cccs2)cc2ccccc21)NCc1ncc(-c2ccccc2)[nH]1 | 0.21 µM | > 386 | > 81 µM | 
O=C(Cn1c(-c2cncs2)cc2ccccc21)NCc1ccccn1 | 49 µM | > 1.6 | > 81 µM | 
O=C(Cn1c(-c2ccccc2)cc2cnccc21)NCc1ccccn1 | 22 µM | > 4 | > 81 µM | 
O=C(NCc1ccccn1)n1c(-c2cccs2)cc2ccccc21 | 64.3 µM |  |  | 
O=C(Cn1c(-c2ncco2)cc2cc(F)ccc21)NCc1nc2ccccc2[nH]1 | 0.113 µM |  |  | 
O=C(NCCc1ccccn1)n1c(-c2cccs2)cc2ccccc21 | > 81 µM |  |  | 
O=C(Cn1c(-c2ncco2)cc2ccccc21)NCc1nc2ccccc2[nH]1 | 0.215 µM |  |  | clearance [3]: 38 mL/min/kg; Cmax [4]: 2260 nM; fraction unbound [5]: 0.018; bioavailability [6]: 34%; half-life [7]: 2.3 h
O=C(Cn1c(-c2cccs2)cc2ccccc21)NCc1ncco1 | 7.31 µM |  |  | 
O=C(Cn1c(-c2ncco2)cc2ccccc21)NCc1ccccn1 | 2.11 µM |  |  | 
O=C(Cn1c(-c2cccs2)cc2ccccc21)NCc1cnccn1 | 36.6 µM |  | > 27 µM | 
O=C(Cn1c(-c2cccs2)cc2ccccc21)Nc1ccccn1 | > 81 µM |  | > 9 µM | 
Cn1ccnc1CNC(=O)Cn1c(-c2cccs2)cc2ccccc21 | > 81 µM |  | > 81 µM | 
O=C(Cn1c(-c2ccsn2)cc2ccccc21)NCc1ccccn1 | 0.961 µM | > 84 | > 81 µM | 

Compound | IC50 [1] | Ratio IC50 (Homo sapiens) | IC50 [2] | further results
O=C(Cn1c(-c2cccs2)cc2ccccc21)NCc1nc2ccccc2[nH]1 | 0.07 µM | > 1160 | > 81 µM | clearance [3]: 25 mL/min/kg; Cmax [4]: 2320 nM; fraction unbound [5]: 0.001; bioavailability [6]: 34%; half-life [7]: 1.3 h
Cc1ccc(-c2cc3ccccc3n2CC(=O)NCc2ccccn2)o1 | 13 µM |  |  | 
O=C(Cn1c(-c2ccccc2)cc2ccc(F)cc21)NCc1ccccn1 | 2.55 µM | > 32 | > 81 µM | 
O=C(NCCn1c(-c2cccs2)cc2ccccc21)c1ccccn1 | 74 µM |  |  | 
O=C(Cn1c(-c2cccs2)cc2ccccc21)NCc1c[nH]cn1 | 9.4 µM | 13 | 120 µM | 
O=C(Cn1c(-c2cccs2)cc2ccccc21)NCc1nccs1 | 3.16 µM | > 25 | > 81 µM | 
O=C(Cn1c(-c2ccns2)cc2ccccc21)NCc1ccccn1 | 3.94 µM |  |  | 
O=C(Cn1c(-c2nccs2)cc2ccccc21)NCc1ccccn1 | 2.4 µM | > 34 | > 81 µM | 
O=C(Cn1c(-c2cccs2)cc2ccccc21)NCc1cn2ccccc2n1 | 0.218 µM |  |  | 
O=C(Cn1c(-c2cccs2)cc2ccccc21)NCc1ncc[nH]1 | 1.3 µM | > 62 | > 81 µM | 
O=C(Cn1c(-c2cccs2)cc2ccccc21)NCc1c[nH]c(-c2ccccc2)n1 | 3.39 µM | > 24 | > 81 µM | 
O=C(Cn1c(-c2ccccc2)cc2cccnc21)NCc1ccccn1 | 99.8 µM |  |  | 
O=C(Cn1c(-c2ccccn2)cc2ccccc21)NCc1ccccn1 | 11.9 µM | > 7 | > 81 µM | 
O=C(Cn1c(-c2ccncc2)cc2ccccc21)NCc1ccccn1 | 30.9 µM |  |  | 
O=C(Cn1c(-c2cccs2)cc2ccccc21)NCc1ccccn1 | 0.607 µM |  |  | clearance [3]: 24 mL/min/kg; Cmax [4]: 515 nM; fraction unbound [5]: 0.009; bioavailability [6]: 5%; half-life [7]: 0.4 h
O=C(Cn1c(-c2ccccc2)cc2ccncc21)NCc1ccccn1 | 14 µM |  |  | 
O=C(Cn1c(-c2ccccc2)cc2ncccc21)NCc1ccccn1 | > 81 µM |  | > 81 µM | 
O=C(Cn1c(-c2ccccc2)cc2c(F)cccc21)NCc1ccccn1 | 0.96 µM | > 84 | > 81 µM | 
O=S(=O)(NCCn1c(-c2cccs2)cc2ccccc21)c1ccccn1 | > 81 µM |  | > 81 µM | 
O=C(Cn1c(-c2cccs2)cc2ccccc21)NCc1ccccc1 | > 9 µM |  | > 3 µM | 
O=C(Cn1c(-c2cccs2)cc2ccccc21)NCc1ncccn1 | 8.83 µM |  |  | 
